Source: patent US8153795B2, “Substituted 1-oxa-3,8-diazaspiro[4.5]-decan-2-one-compounds and the use thereof for producing drugs” (Gruenenthal GmbH, priority 2005, dated 2012)

The compounds below were run against T1, 5-HT transporter (Rattus norvegicus, UniProt P31652) (assay: 5-HT uptake inhibition in rat brain synaptosomes (medulla and pons), [3H]-5-HT).
T1 construct: from tissue; host or cells: rat brain synaptosomes (P2 fraction) from medulla and pons
Assay type: biochemical
From the text: a) Method for Determining Noradrenalin and 5-HT Uptake Inhibition:
Synaptosomes from rat brain regions are freshly isolated for in vitro studies, as described in the publication “The isolation of nerve endings from brain” by E. G. Gray and V. P. Whittaker, J. Anatomy 96, pages 79-88, 1962. The corresponding literature description is hereby introduced as a reference and is deemed to be part of the disclosure.
The tissue (hypothalamus for the determination of noradrenalin uptake inhibition and medulla and pons for the determination of 5-HT uptake inhibition) is homogenised in ice-cooled 0.32 M sucrose (100 mg of tissue/1 mL) in a glass homogeniser with Teflon pestle using five complete up and down strokes at 840 revolutions/minute.
The homogenate is centrifuged at 4° C. for 10 minutes at 1000 g. After subsequent centrifugation at 17000 g for 55 minutes, the synaptosomes (P2 fraction) are obtained, which are resuspended in 0.32 M […] (0.5 mL/100 mg of original weight).
The particular uptake is measured in a 96-well microtitre plate. The volume is 250 μl and the incubation proceeds at room temperature (approx. 20-25° C.) under an O2 atmosphere.
The incubation time is 7.5 minutes for [^3H]-NA and 5 minutes for [^3H]-5-HT. The 96 samples are then filtered through a Unifilter GF/B® microtitre plate (Packard) and washed with 200 mL of incubated buffer using a “Brabdel MPXRI-96T Cell-Harvester”. The Unifilter GF/B plate is dried for 1 hour at 55° C. The plate is then sealed with a Back Seal® (Packard) and 35 μl of scintillation fluid are added per well (Ultima Gold®, Packard). After sealing with a top Seal® (Packard) and establishing an equilibrium (around 5 hours), radioactivity is determined in a “Trilux 1450 Microbeta” (Wallac).
The quantity of protein used in the above determination corresponds to the values known from the literature, as for example described in “Protein measurement with the folin phenol reagent”, Lowry et al., J. Biol. Chem., 193, 265-275, 1951.
A detailed description of the method may additionally be found in the literature, for example in M. Ch. Frink, H.-H. Hennies, W. Engelberger, M. Haurand and B. Wilffert (1996) Arzneim.-Forsch./Drug Res. 46 (III), 11, 1029-1036.

T1 sequence (P31652 whole entry): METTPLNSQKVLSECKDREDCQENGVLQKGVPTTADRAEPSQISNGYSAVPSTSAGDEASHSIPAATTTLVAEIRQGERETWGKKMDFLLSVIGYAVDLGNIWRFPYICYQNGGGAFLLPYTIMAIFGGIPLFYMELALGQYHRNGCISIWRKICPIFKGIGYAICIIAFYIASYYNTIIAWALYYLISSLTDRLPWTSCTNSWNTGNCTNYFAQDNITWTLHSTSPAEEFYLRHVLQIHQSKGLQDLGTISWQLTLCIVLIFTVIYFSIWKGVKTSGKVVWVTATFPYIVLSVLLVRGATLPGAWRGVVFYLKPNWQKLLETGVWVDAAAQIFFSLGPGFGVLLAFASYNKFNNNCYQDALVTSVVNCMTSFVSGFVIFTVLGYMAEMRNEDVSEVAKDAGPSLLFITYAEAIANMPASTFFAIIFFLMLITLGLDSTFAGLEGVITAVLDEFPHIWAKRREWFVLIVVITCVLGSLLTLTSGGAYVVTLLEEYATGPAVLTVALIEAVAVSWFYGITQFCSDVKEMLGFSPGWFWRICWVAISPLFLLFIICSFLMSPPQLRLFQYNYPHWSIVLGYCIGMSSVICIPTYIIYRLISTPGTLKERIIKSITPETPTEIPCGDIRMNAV

Row | Compound | inhibition at 10 µM
1 | O=C1OC2(CCN(C(=O)c3ccccn3)CC2)CN1Cc1cccc(Br)c1 [Example 129, 3-(3-bromobenzyl)-8-(pyridine-2-carbonyl)-1-oxa-3,8-diazaspiro[4.5]decan-2-one] | 77%
2 | Cc1ccc(NC(=O)N2CCC3(CC2)CN(Cc2ccc(I)cc2)C(=O)O3)cc1[N+](=O)[O-] [Example 50, 3-(4-iodobenzyl)-2-oxo-1-oxa-3,8-diazaspiro[4.5]decane-8-carboxylic acid (4-methyl-3-nitrophenyl)amide] | 64%
3 | COc1ccc([N+](=O)[O-])cc1CN1CC2(CCN(CC(=O)Nc3cc(C)nn3C)CC2)OC1=O [Example 76, N-(2,5-dimethyl-2H-pyrazol-3-yl)-2-[3-(2-methoxy-5-nitrobenzyl)-2-oxo-1-oxa-3,8-diazaspiro[4.5]dec-8-yl]acetamide] | 51%
4 | CCSc1ncccc1C(=O)N1CCC2(CC1)CN(Cc1cccc(OC)c1)C(=O)O2 [Example 111, 8-(2-ethylsulfanylpyridine-3-carbonyl)-3-(3-methoxybenzyl)-1-oxa-3,8-diazaspiro[4.5]decan-2-one] | 71%
5 | Cc1ccc(CS(=O)(=O)NC(Cc2ccccc2)C(=O)N2CCC3(CC2)CN(Cc2cccc(C#N)c2)C(=O)O3)cc1 (stereo not drawn) [Example 110, N-{1-benzyl-2-[3-(3-cyanobenzyl)-2-oxo-1-oxa-3,8-diazaspiro[4.5]dec-8-yl]-2-oxoethyl}-4-methylbenzylsulfonamide] | 64%
6 | COc1cccc(NC(=O)N2CCC3(CC2)CN(Cc2ccccc2C(F)(F)F)C(=O)O3)c1 [Example 46, 2-oxo-3-(2-trifluoromethylbenzyl)-1-oxa-3,8-diazaspiro[4.5]decane-8-carboxylic acid (3-methoxyphenyl)amide] | 43%
7 | Cc1cc(C(=O)N2CCC3(CC2)CN(Cc2cccc(C#N)c2)C(=O)O3)ccc1Br [Example 147, 3-[8-(4-bromo-3-methylbenzoyl)-2-oxo-1-oxa-3,8-diazaspiro[4.5]dec-3-ylmethyl]benzonitrile] | 73%
8 | COC(=O)CCC(=O)N1CCC2(CC1)CN(Cc1cccc(Br)c1)C(=O)O2 [Example 133, 4-[3-(3-bromobenzyl)-2-oxo-1-oxa-3,8-diazaspiro[4.5]dec-8-yl]-4-oxobutanoic acid methyl ester] | 64%
9 | COc1cccc(CC(=O)N2CCC3(CC2)CN(Cc2ccc4ccccc4c2)C(=O)O3)c1 [Example 141, 8-[2-(3-methoxyphenyl)acetyl]-3-naphthalen-2-ylmethyl-1-oxa-3,8-diazaspiro[4.5]decan-2-one] | 78%
10 | Cc1cc(C)cc(CN2CC3(CCN(C(=O)c4cccs4)CC3)OC2=O)c1 [Example 130, 3-(3,5-dimethylbenzyl)-8-(thiophene-2-carbonyl)-1-oxa-3,8-diazaspiro[4.5]decan-2-one] | 70%
11 | O=C1OC2(CCN(Cc3ccc(OC(F)(F)F)cc3)CC2)CN1Cc1ccc(F)c(F)c1 [Example 81, 3-(3,4-difluorobenzyl)-8-(4-trifluoromethoxybenzyl)-1-oxa-3,8-diazaspiro[4.5]decan-2-one] | 75%
12 | CCCCOc1ccc(CS(=O)(=O)N2CCC3(CC2)CN(Cc2cc(C)cc(C)c2)C(=O)O3)cc1 [Example 103, 8-(4-butoxybenzylsulfonyl)-3-(3,5-dimethylbenzyl)-1-oxa-3,8-diazaspiro[4.5]decan-2-one] | 83%
13 | CC(NC(=O)N1CCC2(CC1)CN(Cc1ccccc1C(F)(F)F)C(=O)O2)c1cccc2ccccc12 (stereo not drawn) [Example 54, 2-oxo-3-(2-trifluoromethylbenzyl)-1-oxa-3,8-diazaspiro[4.5]decane-8-carboxylic acid (1-naphthalen-1-yl-ethyl)amide] | 75%
14 | O=C1OC2(CCN(C(=S)NCc3ccccc3)CC2)CN1Cc1ccc(F)c(F)c1 [Example 11, 3-(3,4-difluorobenzyl)-2-oxo-1-oxa-3,8-diazaspiro[4.5]decane-8-carbothioic acid benzylamide] | 58%
15 | Cc1ccc(NC(=O)N2CCC3(CC2)CN(Cc2ccc(SC(F)(F)F)cc2)C(=O)O3)cc1[N+](=O)[O-] [Example 40, 2-oxo-3-(4-trifluoromethylsulfanylbenzyl)-1-oxa-3,8-diazaspiro[4.5]decane-8-carboxylic acid (4-methyl-3-nitrophenyl)amide] | 54%
16 | N#Cc1ccccc1CN1CC2(CCN(Cc3csc4ccc(Cl)cc34)CC2)OC1=O [Example 84, 2-[8-(5-chlorobenzo[b]thiophen-3-ylmethyl)-2-oxo-1-oxa-3,8-diazaspiro[4.5]dec-3-ylmethyl]benzonitrile] | 62%
17 | CCCCC(=O)N1CCC2(CC1)CN(Cc1cc([N+](=O)[O-])ccc1OC)C(=O)O2 [Example 123, 3-(2-methoxy-5-nitrobenzyl)-8-pentanoyl-1-oxa-3,8-diazaspiro[4.5]decan-2-one] | 71%
18 | Cc1ccc(C(=O)N2CCC3(CC2)CN(Cc2ccc(F)c(F)c2)C(=O)O3)cc1 [Example 136, 3-(3,4-difluorobenzyl)-8-(4-methylbenzoyl)-1-oxa-3,8-diazaspiro[4.5]decan-2-one] | 67%
19 | Cc1cc(C)cc(CN2CC3(CCN(C(=O)c4ccc(Br)cc4)CC3)OC2=O)c1 [Example 124, 8-(4-bromobenzoyl)-3-(3,5-dimethylbenzyl)-1-oxa-3,8-diazaspiro[4.5]decan-2-one] | 72%
20 | Cc1cc(C)cc(CN2CC3(CCN(C(=O)c4cccc(Cl)c4)CC3)OC2=O)c1 [Example 126, 8-(3-chlorobenzoyl)-3-(3,5-dimethylbenzyl)-1-oxa-3,8-diazaspiro[4.5]decan-2-one] | 64%
21 | COc1ccc([N+](=O)[O-])cc1CN1CC2(CCN(C(=O)c3cccc(N(C)C)c3)CC2)OC1=O [Example 138, 8-(3-dimethylaminobenzoyl)-3-(2-methoxy-5-nitrobenzyl)-1-oxa-3,8-diazaspiro[4.5]decan-2-one] | 65%
22 | Cc1cc(C)cc(CN2CC3(CCN(C(=O)c4ccc(F)c(Cl)c4)CC3)OC2=O)c1 [Example 131, 8-(3-chloro-4-fluorobenzoyl)-3-(3,5-dimethylbenzyl)-1-oxa-3,8-diazaspiro[4.5]decan-2-one] | 63%
23 | O=C(CN1CCC2(CC1)CN(Cc1ccc(SC(F)(F)F)cc1)C(=O)O2)Nc1csc(C(F)(F)F)c1-c1ccccc1 [Example 85, 2-[2-oxo-3-(4-trifluoromethylsulfanylbenzyl)-1-oxa-3,8-diazaspiro[4.5]dec-8-yl]-N-(4-phenyl-5-trifluoromethylthiophen-3-yl)acetamide] | 90%
24 | COc1ccc([N+](=O)[O-])cc1CN1CC2(CCN(C(=S)NCC3CCCCC3)CC2)OC1=O [Example 21, 3-(2-methoxy-5-nitrobenzyl)-2-oxo-1-oxa-3,8-diazaspiro[4.5]decane-8-carbothioic acid cyclohexylmethylamide] | 55%
25 | COc1ccc([N+](=O)[O-])cc1CN1CC2(CCN(C(=O)c3cccnc3Oc3ccccc3)CC2)OC1=O [Example 140, 3-(2-methoxy-5-nitrobenzyl)-8-(2-phenoxypyridine-3-carbonyl)-1-oxa-3,8-diazaspiro[4.5]decan-2-one] | 64%
26 | O=C(Nc1cc(Cl)ccc1Cl)N1CCC2(CC1)CN(Cc1ccccc1-c1ccccc1)C(=O)O2 [Example 25, 3-biphenyl-2-ylmethyl-2-oxo-1-oxa-3,8-diazaspiro[4.5]decane-8-carboxylic acid (2,5-dichlorophenyl)amide] | 53%
27 | Cc1cc(C)cc(CN2CC3(CCN(C(=O)c4c(F)ccc(C)c4F)CC3)OC2=O)c1 [Example 132, 8-(2,6-difluoro-3-methylbenzoyl)-3-(3,5-dimethylbenzyl)-1-oxa-3,8-diazaspiro[4.5]decan-2-one] | 65%
28 | COc1cccc(CC(=O)N2CCC3(CC2)CN(Cc2cc(C)cc(C)c2)C(=O)O3)c1 [Example 113, 3-(3,5-dimethylbenzyl)-8-[2-(3-methoxyphenyl)acetyl]-1-oxa-3,8-diazaspiro[4.5]decan-2-one] | 68%
29 | N#Cc1cccc(CN2CC3(CCN(C(=S)NCc4ccc(Cl)cc4)CC3)OC2=O)c1 [Example 22, 3-(3-cyanobenzyl)-2-oxo-1-oxa-3,8-diazaspiro[4.5]decane-8-carbothioic acid 4-chlorobenzylamide] | 48%
30 | CCOC(=O)c1cccc(NC(=O)N2CCC3(CC2)CN(Cc2ccccc2C(F)(F)F)C(=O)O3)c1 [Example 59, 3-{[2-oxo-3-(2-trifluoromethylbenzyl)-1-oxa-3,8-diazaspiro[4.5]decane-8-carbonyl]amino}benzoic acid ethyl ester] | 47%
